For one test, the system named is SJSA-1 cells. Kind of test: Protocol B: SJSA-1 CellTiter-Glo luminescent cell viability assay. In general terms: In ATP-based viability assays light output follows the ATP content of the culture.
A further test concerns SN40R2 cells. Kind of test: Protocol B: SN40R2 CellTiter-Glo luminescent cell viability assay. Particulars: for IC50: read-out: SN40R2 IC50 (μM) (Protocol B).
Where [1] appears, read: Homo sapiens, SJSA-1, read-out: SJSA1 IC50 (μM) (Protocol B), SJSA-1, Protocol B.
Where [2] appears, read: read-out: SJSA1 IC50 (μM) (Protocol B), SJSA-1, Protocol B.
The mark [3] stands for this setting: Homo sapiens, SJSA-1, read-out: SJSA1 IC50 (μM), Protocol B, SJSA-1.
Where [4] appears, read: read-out: SN40R2 % inhibition at 10.
[5] abbreviates: read-out: SJSA1 IC50, Protocol B, SJSA-1.

Experimental findings from US11236047B2 (ASTEX THERAPEUTICS LIMITED, priority 2017, dated 2022) are described below.

Like-named read-outs stand apart in the source and are kept apart here.

For the compound `CO[C@]1(c2ccc(Cl)cc2)c2c(F)cc(C(C)(O)c3ncc[nH]3)cc2C(=O)N1Cc1ccc(Cl)cn1` (single isomer, unassigned) [Example 163], the IC50 (as a rule, the concentration that inhibits the measured activity by half) with SJSA-1 cells (setting [1]) was determined as 3.1 µM; in the test with SN40R2 cells, 13 µM. For `CO[C@]1(c2ccc(Cl)cc2)c2c(F)cc(C(C)(O)c3nccs3)cc2C(=O)N1Cc1ccc(Cl)cn1` (single isomer, unassigned) [Example 165], the figures for the IC50 with SJSA-1 cells (setting [2]) and in the test on SN40R2 cells were 1.4 µM and 13 µM, respectively. `CCC(O)(c1cc(F)c2c(c1)C(=O)N(Cc1ccc(C#N)cn1)[C@@]2(OCCO)c1ccc(Cl)cc1)c1cscn1` (single isomer, unassigned) [Example 333]: the IC50 in the test with SJSA-1 cells (setting [3]) was found to be 0.22 µM. In the test on SN40R2 cells (setting [4]), the inhibition (as a rule, the percentage by which the read-out fell short of the control) at 10 µM is 5%.

`CCC(O)(c1cc(F)c2c(c1)C(=O)N(Cc1ccc(C#N)cn1)[C@@]2(OCC1(CO)CC1)c1ccc(Cl)cc1)c1cn(C)cn1` (single isomer, unassigned) [Example 338]: the half-maximal inhibitory concentration (IC50) in the test on SJSA-1 cells (setting [5]) turned out to be 1.5 µM. The inhibition at 10 µM in the test with SN40R2 cells (setting [4]) came to 6%. In the case of `CCC(O)(CN1CCN(C)CC1)c1cc(F)c2c(c1)C(=O)N(Cc1ncc(Cl)cn1)[C@@]2(O[C@H]1CCOC1)c1ccc(Cl)cc1` (single isomer, unassigned) [Example 522], the IC50 with SJSA-1 cells (setting [5]) was 0.048 µM. Moreover, in the test on SN40R2 cells (setting [4]), the inhibition at 10 µM was found to be 24%. Turning to `CCC(O)(CN1CCN(C)CC1)c1cc(F)c2c(c1)C(=O)N(Cc1ncc(Cl)cn1)[C@@]2(OCC1(C#N)CC1)c1ccc(Cl)cc1` (single isomer, unassigned) [Example 534], in the test on SJSA-1 cells (setting [5]), the IC50 turned out to be 0.7 µM. The inhibition at 10 µM in the test with SN40R2 cells (setting [4]) amounted to 44%. As to `[2H]C([2H])(O)C1(C([2H])([2H])O[C@]2(c3ccc(Cl)cc3)c3c(F)cc(C(C)(O)CC)cc3C(=O)N2Cc2ncc(C#N)cn2)CC1` (single isomer, unassigned) [Example 576], in the test with SJSA-1 cells (setting [3]), the IC50 was 0.14 µM. In addition, in the test with SN40R2 cells (setting [4]), the inhibition at 10 µM was 5%. On to `CO[C@]1(c2ccc(Cl)cc2)c2c(F)cc(C(C)(O)c3cn(C)c(C)n3)cc2C(=O)N1Cc1ccc(Cl)cn1` (stereo partly drawn) [Example 162, (3R)-3-(4-Chlorophenyl)-2-[(5-chloropyridin-2-yl)methyl]-6-[1-(1,2-dimethyl-1H-imidazol-4-yl)-1-hydroxyethyl]-4-fluoro-3-methoxy-2,3-dihydro-1H-isoindol-1-one], for which the IC50 in the test on SJSA-1 cells (setting [2]) amounted to 0.22 µM; with SN40R2 cells, 13 µM. Consider `CO[C@]1(c2ccc(Cl)cc2)c2c(F)cc(C(C)(O)C3CN(C)C3)cc2C(=O)N1Cc1ccc(Cl)cn1` (stereo partly drawn) [Example 307, (3R)-3-(4-chlorophenyl)-2-[(5-chloropyridin-2-yl)methyl]-4-fluoro-6-[1-hydroxy-1-(1-methylazetidin-3-yl)ethyl]-3-methoxy-2,3-dihydro-1H-isoindol-1-one], for which the values for the 50% inhibitory concentration (IC50) in the test on SJSA-1 cells (setting [1]) and in the test on SN40R2 cells were 1.9 µM and 11 µM, respectively. With `Cn1cc(C(C)(O)c2cc(F)c3c(c2)C(=O)N(Cc2ccc(Cl)cn2)[C@@]3(OCC2(CO)CC2)c2ccc(Cl)cc2)cn1` (stereo partly drawn) [Example 346, (3R)-3-(4-chlorophenyl)-2-[(5-chloropyridin-2-yl)methyl]-4-fluoro-6-[1-hydroxy-1-(1-methyl-1H-pyrazol-4-yl)ethyl]-3-{[1-(hydroxymethyl)cyclopropyl]methoxy}-2,3-dihydro-1H-isoindol-1-one], the values for the IC50 with SJSA-1 cells (setting [1]) and with SN40R2 cells were 0.012 µM and 12 µM, respectively. For the compound `CC(O)(c1cc(F)c2c(c1)C(=O)N(Cc1ncc(Cl)cn1)[C@@]2(OCC1(CO)CC1)c1ccc(Cl)cc1)[C@H]1CC[C@H](O)CC1` (stereo partly drawn) [Example 401, (3R)-3-(4-chlorophenyl)-2-[(5-chloropyrimidin-2-yl)methyl]-4-fluoro-6-{1-hydroxy-1-[trans-4-hydroxycyclohexyl]ethyl}-3-{[1-(hydroxymethyl)cyclopropyl]methoxy}-2,3-dihydro-1H-isoindol-1-one], the IC50 with SJSA-1 cells (setting [5]) is 0.0098 µM. Besides, the inhibition at 10 µM in the test with SN40R2 cells (setting [4]) is 6%. `CCC(O)(c1cc(F)c2c(c1)C(=O)N(Cc1ncc(C#N)cn1)[C@@]2(OC1CCC(O)C1)c1ccc(Cl)cc1)c1cn(C)cn1` (stereo partly drawn) [Example 461, 2-{[(1R)-1-(4-chlorophenyl)-7-fluoro-5-[1-hydroxy-1-(1-methyl-1H-imidazol-4-yl)propyl]-1-[(trans-3-hydroxycyclopentyl)oxy]-3-oxo-2,3-dihydro-1H-isoindol-2-yl]methyl}pyrimidine-5-carbonitrile]: the inhibition at 10 µM in the test with SN40R2 cells (setting [4]) stood at 6%. In the case of `C=C(CO)CO[C@]1(c2ccc(Cl)cc2)c2c(F)cc(C(O)(CC)c3cn(C)cn3)cc2C(=O)N1Cc1ccc(C#N)cn1` (stereo partly drawn) [Example 466, 6-{[(1R)-1-(4-chlorophenyl)-7-fluoro-5-[1-hydroxy-1-(1-methyl-1H-imidazol-4-yl)propyl]-1-(3-hydroxy-2-methylidenepropoxy)-3-oxo-2,3-dihydro-1H-isoindol-2-yl]methyl}pyridine-3-carbonitrile], the inhibition at 10 µM in the test with SN40R2 cells (setting [4]) is 4%. As for `CC(O)(c1cc(F)c2c(c1)C(=O)N(Cc1ncc(Cl)cn1)[C@@]2(O[C@H]1CCOC1)c1ccc(Cl)cc1)C1(F)CCOCC1` (stereo partly drawn) [Example 493, (3R)-3-(4-chlorophenyl)-2-[(5-chloropyrimidin-2-yl)methyl]-4-fluoro-6-[1-(4-fluorooxan-4-yl)-1-hydroxyethyl]-3-[(3S)-oxolan-3-yloxy]-2,3-dihydro-1H-isoindol-1-one], the inhibition at 10 µM in the test on SN40R2 cells (setting [4]) came to 11%. As to `CC[C@](O)(c1cc(F)c2c(c1)C(=O)N(Cc1ncc(Cl)cn1)[C@@]2(OCCO)c1ccc(Cl)cc1)C1(F)CCOCC1` [Example 502, (3R)-3-(4-chlorophenyl)-2-[(5-chloropyrimidin-2-yl)methyl]-4-fluoro-6-[(1S)-1-(4-fluorooxan-4-yl)-1-hydroxypropyl]-3-(2-hydroxyethoxy)-2,3-dihydro-1H-isoindol-1-one], the inhibition at 10 µM in the test on SN40R2 cells (setting [4]) amounted to 11%.

For `CC[C@@](O)(c1cc(F)c2c(c1)C(=O)N(Cc1ccc(C)nc1C(=O)O)[C@@]2(OC)c1ccc(Cl)cc1)C1(F)CCOCC1` [Example 515, 3-{[(1R)-1-(4-chlorophenyl)-7-fluoro-5-[(1R)-1-(4-fluorooxan-4-yl)-1-hydroxypropyl]-1-methoxy-3-oxo-2,3-dihydro-1H-isoindol-2-yl]methyl}-6-methylpyridine-2-carboxylic acid], the inhibition at 10 µM in the test on SN40R2 cells (setting [4]) came out at 8%. In the case of `[2H]C([2H])(c1ncc(Cl)cn1)N1C(=O)c2cc(C(C)(O)C3(F)CCOCC3)cc(F)c2[C@]1(O[C@H]1CCOC1)c1ccc(Cl)cc1` (stereo partly drawn) [Example 516, (3R)-3-(4-chlorophenyl)-2-[(5-chloropyrimidin-2-yl)dideuteromethyl]-4-fluoro-6-[1-(4-fluorooxan-4-yl)-1-hydroxyethyl]-3-[(3S)-oxolan-3-yloxy]-2,3-dihydro-1H-isoindol-1-one], in the test with SN40R2 cells (setting [4]), the inhibition at 10 µM is 4%. Regarding `CCC(O)(CN(C)C)c1cc(F)c2c(c1)C(=O)N(Cc1ncc(Cl)cn1)[C@@]2(O[C@H]1CCOC1)c1ccc(Cl)cc1` (stereo partly drawn) [Example 528, (3R)-3-(4-chlorophenyl)-2-[(5-chloropyrimidin-2-yl)methyl]-6-[1-(dimethylamino)-2-hydroxybutan-2-yl]-4-fluoro-3-[(3S)-oxolan-3-yloxy]-2,3-dihydro-1H-isoindol-1-one], the inhibition at 10 µM with SN40R2 cells (setting [4]) stood at 10%. On to `CC[C@@](O)(c1cc(F)c2c(c1)C(=O)N(Cc1ncc(Cl)cn1)[C@@]2(OC)c1ccc(Cl)cc1)C1CCN(C)CC1` [Example 553, (3R)-3-(4-chlorophenyl)-2-[(5-chloropyrimidin-2-yl)methyl]-4-fluoro-6-[(1S)-1-hydroxy-1-(1-methylpiperidin-4-yl)propyl]-3-methoxy-2,3-dihydro-1H-isoindol-1-one], for which, in the test with SN40R2 cells (setting [4]), the inhibition at 10 µM turned out to be 24%.

With `CC[C@@](O)(c1cc(F)c2c(c1)C(=O)N(Cc1ncc(Cl)cn1)[C@@]2(OCCO)c1ccc(Cl)cc1)C1CCN(C)CC1` [Example 559, (3R)-3-(4-chlorophenyl)-2-[(5-chloropyrimidin-2-yl)methyl]-4-fluoro-6-[(1S)-1-hydroxy-1-(1-methylpiperidin-4-yl)propyl]-3-(2-hydroxyethoxy)-2,3-dihydro-1H-isoindol-1-one], the inhibition at 10 µM in the test on SN40R2 cells (setting [4]) came to 1%. For `CC[C@@](O)(c1cc(F)c2c(c1)C(=O)N(Cc1ncc(Cl)cn1)[C@@]2(OC[C@@H](C)O)c1ccc(Cl)cc1)C1CCN(C)CC1` [Example 562, (3R)-3-(4-chlorophenyl)-2-[(5-chloropyrimidin-2-yl)methyl]-4-fluoro-6-[(1S)-1-hydroxy-1-(1-methylpiperidin-4-yl)propyl]-3-[(2R)-2-hydroxypropoxy]-2,3-dihydro-1H-isoindol-1-one], the inhibition at 10 µM in the test with SN40R2 cells (setting [4]) came to 1%. Consider `CC[C@](O)(c1cc(F)c2c(c1)C(=O)N(Cc1ncc(Cl)cn1)[C@@]2(OC)c1ccc(Cl)cc1)C1CCN(C)CC1` [Example 566, (3R)-3-(4-chlorophenyl)-2-[(5-chloropyrimidin-2-yl)methyl]-4-fluoro-6-[(1R)-1-hydroxy-1-(1-methylpiperidin-4-yl)propyl]-3-methoxy-2,3-dihydro-1H-isoindol-1-one], for which, in the test with SN40R2 cells (setting [4]), the inhibition at 10 µM is 46%. For the compound `CC(O)(c1cc(F)c2c(c1)C(=O)N(Cc1ccc(C#N)cn1)[C@@]2(OC[C@H](O)CF)c1ccc(Cl)cc1)C1(F)CCOCC1` (stereo partly drawn) [Example 579, 6-{[(1R)-1-(4-chlorophenyl)-7-fluoro-1-[(2S)-3-fluoro-2-hydroxypropoxy]-5-[1-(4-fluorooxan-4-yl)-1-hydroxyethyl]-3-oxo-2,3-dihydro-1H-isoindol-2-yl]methyl}pyridine-3-carbonitrile], in the test on SN40R2 cells (setting [4]), the inhibition at 10 µM stood at 4%. As for `[2H]C([2H])(O)C([2H])([2H])O[C@]1(c2ccc(Cl)cc2)c2c(F)cc(C(O)(CC)C3(F)CCN(C)CC3)cc2C(=O)N1Cc1ncc(Cl)cn1` (stereo partly drawn) [Example 580, (3R)-3-(4-chlorophenyl)-2-[(5-chloropyrimidin-2-yl)methyl]-4-fluoro-6-[1-(4-fluoro-1-methylpiperidin-4-yl)-1-hydroxypropyl]-3-[2-hydroxy(1,1,2,2-tetradeutero)ethoxy]-2,3-dihydro-1H-isoindol-1-one], the inhibition at 10 µM with SN40R2 cells (read-out: SN40R2 % inhibition at 10, Protocol B, SN40R2, at 10 μM) was determined as 13%.
